The test addresses T1, Phospho EGFR LRCS (BaF3-LRCS cell line) (Homo sapiens, UniProt P00533, C797S/L858R).
T1 construct: host or cells: BaF3 (BaF3-LRCS), kept under puromycin selection
Kind of test: HTRF Phospho EGFR LRCS Assay (Cellular). The class given is cell-based. The conditions noted are these: BaF3-LRCS cells, 4 hours incubation, HTRF phospho-EGFR readout. The method, then: HTRF Phospho EGFR LRCS Assay (Cellular)
BaF3-LRCS cell line were obtained from Crownbio (San Diego, CA, USA). Cells were maintained at 37° C., 5% C02 in RPMI ATCC (Gibco 31870)+2 mM Glutamine+0.5 μg/ml Puromycin supplemented with 10% fetal bovine serum (FBS) (Gibco).
Cells are transferred as above to Greiner Bio-One, Nr. 784-08 micro-titerplate at 20000 cells/well in 12.5 μl of growth medium/well after the plates had been pre-filled with 12.5 nl of DMSO solutions of the to be tested compounds (in dose response) or DMSO only. After spinning the plates at 300×g for 30 seconds the cells were incubated for 4 hours at 37 C, 5% C02, 95% humidity. The cells were lysed by adding to the compound mix 4 µl/well of the supplemented lysis buffer (Cis-bio, Phospho-EGFR HTRF kit, 64EG1PEH), followed by incubation for 30 min at room temperature with shaking (400 rpm). The plates were then frozen and stored overnight at −80° C. On the next day and after thawing the plates, 4 μl of a mixture of anti-Phospho-EGFR Cryptate and of anti-Phospho-EGFR-d2 antibody solutions prepared in the supplied detection buffer was added to each well. The lidded plates were then incubated for 4 h at room temperature before reading the fluorescence emission at 616 and 665 nm using an Envision reader (Perkin Elmer). Data was analyzed in similar fashion as above using the normalized ratio of the 665 to 616 signals multiplied by 10000.
T1 sequence (P00533 25-1210 C797S/L858R): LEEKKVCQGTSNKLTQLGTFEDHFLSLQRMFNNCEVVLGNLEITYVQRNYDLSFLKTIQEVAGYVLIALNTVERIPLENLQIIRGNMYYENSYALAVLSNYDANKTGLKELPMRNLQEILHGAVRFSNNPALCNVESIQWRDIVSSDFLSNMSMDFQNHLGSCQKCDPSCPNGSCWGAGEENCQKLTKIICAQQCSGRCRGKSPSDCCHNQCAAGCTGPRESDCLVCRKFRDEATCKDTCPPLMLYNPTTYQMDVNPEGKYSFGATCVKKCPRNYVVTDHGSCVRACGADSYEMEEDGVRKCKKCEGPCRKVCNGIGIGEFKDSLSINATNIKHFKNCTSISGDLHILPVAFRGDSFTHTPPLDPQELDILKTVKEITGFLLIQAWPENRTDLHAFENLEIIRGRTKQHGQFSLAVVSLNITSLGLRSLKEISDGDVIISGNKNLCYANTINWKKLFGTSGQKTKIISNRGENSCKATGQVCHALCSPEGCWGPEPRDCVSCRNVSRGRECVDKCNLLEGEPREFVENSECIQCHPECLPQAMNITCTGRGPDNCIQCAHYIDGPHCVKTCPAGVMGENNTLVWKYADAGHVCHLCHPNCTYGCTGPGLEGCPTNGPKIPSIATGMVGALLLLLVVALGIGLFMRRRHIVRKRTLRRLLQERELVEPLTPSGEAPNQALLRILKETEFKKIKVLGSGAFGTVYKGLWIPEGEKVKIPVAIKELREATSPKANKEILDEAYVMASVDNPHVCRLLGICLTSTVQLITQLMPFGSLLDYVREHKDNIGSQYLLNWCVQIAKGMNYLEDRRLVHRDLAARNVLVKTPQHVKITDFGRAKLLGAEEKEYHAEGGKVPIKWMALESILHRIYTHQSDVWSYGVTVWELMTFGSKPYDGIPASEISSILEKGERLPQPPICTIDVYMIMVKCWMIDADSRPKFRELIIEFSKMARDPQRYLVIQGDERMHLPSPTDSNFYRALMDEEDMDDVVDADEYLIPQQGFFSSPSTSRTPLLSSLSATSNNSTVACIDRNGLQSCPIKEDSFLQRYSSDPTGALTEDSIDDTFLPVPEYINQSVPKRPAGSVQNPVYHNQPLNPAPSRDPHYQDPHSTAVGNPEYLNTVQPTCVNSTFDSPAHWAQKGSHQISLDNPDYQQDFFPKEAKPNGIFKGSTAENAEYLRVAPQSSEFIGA
By IC50 is commonly meant the midpoint of a concentration-inhibition curve. A lower IC50 goes with higher potency. Molecule `Cc1c(C#Cc2ccc(CN3CCC(CO)CC3)cc2)cc(C(F)F)c2cn(C(C(=O)Nc3nccs3)c3ncn4c3C[C@@H](F)C4)nc12` (stereo partly drawn) [Example 1, 2-[4-(Difluoromethyl)-6-[2-[4-[[4-(hydroxymethyl)-1-piperidyl]methyl]phenyl]ethynyl]-7-methyl-indazol-2-yl]-2-[(6R)-6-fluoro-6,7-dihydro-5H-pyrrolo[1,2-c]imidazol-1-yl]-N-thiazol-2-yl-acetamide] showed a half-maximal inhibitory concentration (IC50) of 22 nM.

Turning to `Cc1c(C#Cc2ccc(CN3CCC(CO)CC3)cc2)cc(C(F)F)c2cn(C(C(=O)Nc3nccs3)c3ncn4c3CCC4)nc12` (centres unmarked) [Example 2, 2-[4-(Difluoromethyl)-6-[2-[4-[[4-(hydroxymethyl)-1-piperidyl]methyl]phenyl]ethynyl]-7-methyl-indazol-2-yl]-2-(6,7-dihydro-5H-pyrrolo[1,2-c]imidazol-1-yl)-N-thiazol-2-yl-acetamide], 23 nM corresponded to half-maximal inhibition (IC50).

On to `Cc1c(C#Cc2ccc(CN3CCC(CO)CC3)cc2)cc(C(F)(F)F)c2cn(C(C(=O)Nc3nccs3)c3ncn4c3C[C@@H](F)C4)nc12` (stereo partly drawn) [Example 3, 2-[(6R)-6-Fluoro-6,7-dihydro-5H-pyrrolo[1,2-c]imidazol-1-yl]-2-[6-[2-[4-[[4-(hydroxymethyl)-1-piperidyl]methyl]phenyl]ethynyl]-7-methyl-4-(trifluoromethyl)indazol-2-yl]-N-thiazol-2-yl-acetamide], for which half-maximal inhibition (IC50) required 15 nM.

`Cc1c(C#Cc2ccc(CN3CCC(CO)CC3)cc2)cc(C(F)(F)F)c2cn(C(C(=O)Nc3nccs3)c3ncn4c3CCC4)nc12` (centres unmarked) [Example 4, 2-(6,7-Dihydro-5H-pyrrolo[1,2-c]imidazol-1-yl)-2-[6-[2-[4-[[4-(hydroxymethyl)-1-piperidyl]methyl]phenyl]ethynyl]-7-methyl-4-(trifluoromethyl)indazol-2-yl]-N-thiazol-2-yl-acetamide] displayed an IC50 of 9 nM.

On to `Cc1c(C#Cc2ccc(CN3CCC(CO)CC3)cc2)cc(C(F)F)c2cn(C(C(=O)Nc3nccs3)c3ncn4c3CCC4(C)C)nc12` (centres unmarked) [Example 5, 2-[4-(Difluoromethyl)-6-[2-[4-[[4-(hydroxymethyl)-1-piperidyl]methyl]phenyl]ethynyl]-7-methyl-indazol-2-yl]-2-(5,5-dimethyl-6,7-dihydropyrrolo[1,2-c]imidazol-1-yl)-N-thiazol-2-yl-acetamide], for which the IC50 amounted to 11 nM.

Turning to `Cc1c(C#Cc2ccc(CN3CCC(CO)CC3)cc2)cc(C(F)F)c2cn(C(C(=O)Nc3nccs3)c3ncn4c3CCC43CC3)nc12` (centres unmarked) [Example 6], the IC50 was determined as 10 nM.

The molecule `Cc1c(C#Cc2ccc(CN3CCC(CO)CC3)cc2)cc(C(F)(F)F)c2cn(C(C(=O)Nc3nccs3)c3ncn4c3CCC43CC3)nc12` (centres unmarked) [Example 7] gave an IC50 of 11 nM.

`Cc1c(C#Cc2ccc(CN3CCC(CO)CC3)cc2)cc(C(F)(F)F)c2cn(C(C(=O)Nc3nccs3)c3ncn4c3CCC4(C)C)nc12` (centres unmarked) [Example 8, 2-(5,5-Dimethyl-6,7-dihydropyrrolo[1,2-c]imidazol-1-yl)-2-[6-[2-[4-[[4-(hydroxymethyl)-1-piperidyl]methyl]phenyl]ethynyl]-7-methyl-4-(trifluoromethyl)indazol-2-yl]-N-thiazol-2-yl-acetamide]: half-maximal inhibition (IC50) was put at 12 nM.

The record behind these values is patent US12686682B2, “Indazole acetylene derivatives” (Hoffmann-La Roche Inc., priority 2020, dated 2026).
